# Tests used:
# Experiment in all cases: relative viability (nuclei count vs DMSO), 5 days (fraction); higher = more cells survive
# [1] = compound: CN(c1ncccc1CNc1nc(Nc2ccc3c(c2)CC(=O)N3)ncc1C(F)(F)F)S(C)(=O)=O
# In short: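 Acceptance criteria were a control CV below 25% and at least one doubling per plate. Lung cancer cell lines in 1536-well plates got five library-drug doses (not always all listed) √10 apart by pinning and were left 5 days with no medium change. Viability divides treated-well nuclei by vehicle-well nuclei and is the median across plates. Nuclei were counted by MetaXpress from 4× Hoechst images.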
# [2] = compound: CN(c1ncccc1CNc1nc(Nc2ccc3c(c2)CC(=O)N3)ncc1C(F)(F)F)S(C)(=O)=O + CC(=O)Nc1cccc(-n2c(=O)n(C3CC3)c(=O)c3c(Nc4ccc(I)cc4F)n(C)c(=O)c(C)c32)c1 [Trametinib] (partner 0.02 µM)
# In short: (§1)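 Lung cancer cell lines, seeded in 1536-well plates, were treated the following day by pin tool with a single drug or with five library-drug doses (not always all listed) in √10 steps on top of a fixed anchor-drug dose. Cells were fixed and nuclei stained in one step after 5 days, and nuclei were counted. Relative viability is the nuclei count for treated wells divided by that for vehicle wells, reported as medians of duplicate plates.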
# [3] = compound: CN(c1ncccc1CNc1nc(Nc2ccc3c(c2)CC(=O)N3)ncc1C(F)(F)F)S(C)(=O)=O + CC(=O)c1c(C)c2cnc(Nc3ccc(N4CCNCC4)cn3)nc2n(C2CCCC2)c1=O [Palbociclib] (partner 0.5 µM)
# In short: as §1
# [4] = compound: CN(c1ncccc1CNc1nc(Nc2ccc3c(c2)CC(=O)N3)ncc1C(F)(F)F)S(C)(=O)=O + CCNC(=O)c1noc(-c2cc(C(C)C)c(O)cc2O)c1-c1ccc(CN2CCOCC2)cc1 [Luminespib] (partner 0.01 µM)
# In short: as §1
# [5] = compound: CN(c1ncccc1CNc1nc(Nc2ccc3c(c2)CC(=O)N3)ncc1C(F)(F)F)S(C)(=O)=O + COc1cccc2cc(-c3nc([C@H]4CC[C@H](C(=O)O)CC4)n4ncnc(N)c34)[nH]c12 [OSI-027] (partner 0.5 µM)
# In short: as §1
# [6] = compound: CN(c1ncccc1CNc1nc(Nc2ccc3c(c2)CC(=O)N3)ncc1C(F)(F)F)S(C)(=O)=O + Cc1cc(Nc2cc(N3CCN(C)CC3)nc(Sc3ccc(NC(=O)C4CC4)cc3)n2)n[nH]1 [Tozasertib] (partner 0.1 µM)
# In short: as §1
# [7] = compound: CN(c1ncccc1CNc1nc(Nc2ccc3c(c2)CC(=O)N3)ncc1C(F)(F)F)S(C)(=O)=O + Cc1nc(Nc2ncc(C(=O)Nc3c(C)cccc3Cl)s2)cc(N2CCN(CCO)CC2)n1 [Dasatinib] (partner 0.075 µM)
# In short: as §1
# [8] = compound: CN(c1ncccc1CNc1nc(Nc2ccc3c(c2)CC(=O)N3)ncc1C(F)(F)F)S(C)(=O)=O + N=C(N)NC(=N)NCCc1ccccc1 [Phenformin] (partner 250 µM)
# In short: as §1
# [9] = compound: CN(c1ncccc1CNc1nc(Nc2ccc3c(c2)CC(=O)N3)ncc1C(F)(F)F)S(C)(=O)=O + NC(=O)Nc1cc(-c2cccc(F)c2)sc1C(=O)N[C@H]1CCCNC1 [AZD7762] (partner 0.2 µM)
# In short: as §1
# [10] = compound: CN(c1ncccc1CNc1nc(Nc2ccc3c(c2)CC(=O)N3)ncc1C(F)(F)F)S(C)(=O)=O + Nc1nc2[nH]cc(CCc3ccc(C(=O)N[C@@H](CCC(=O)O)C(=O)O)cc3)c2c(=O)[nH]1 [Pemetrexed] (partner 0.2 µM)
# In short: as §1
# [11] = compound: CN(c1ncccc1CNc1nc(Nc2ccc3c(c2)CC(=O)N3)ncc1C(F)(F)F)S(C)(=O)=O + Nc1ncn([C@H]2C[C@H](O)[C@@H](CO)O2)c(=O)n1 [Decitabine] (partner 2 µM)
# In short: as §1
# [12] = compound: CN(c1ncccc1CNc1nc(Nc2ccc3c(c2)CC(=O)N3)ncc1C(F)(F)F)S(C)(=O)=O + O=C(CCCCCCC(=O)Nc1ccccc1)NO [Vorinostat] (partner 1 µM)
# In short: as §1
# [13] = compound: CN(c1ncccc1CNc1nc(Nc2ccc3c(c2)CC(=O)N3)ncc1C(F)(F)F)S(C)(=O)=O + O=C(c1cc(Cc2n[nH]c(=O)c3ccccc23)ccc1F)N1CCN(C(=O)C2CC2)CC1 [Olaparib] (partner 8 µM)
# In short: as §1
cell line,measurement,setting,value
NCI-H522,relative viability,[1]; 0.01 µM,0.916
same,relative viability,[1]; 0.03162 µM,0.918
same,relative viability,[1]; 0.1 µM,0.996
same,relative viability,[1]; 0.3162 µM,1
same,relative viability,[1]; 1 µM,1.02
same,relative viability,[2]; first compound 0.01 µM,0.73
same,relative viability,[2]; first compound 0.03162 µM,0.813
same,relative viability,[2]; first compound 0.1 µM,0.698
same,relative viability,[2]; first compound 0.3162 µM,0.812
same,relative viability,[2]; first compound 1 µM,0.705
same,relative viability,[3]; first compound 0.01 µM,1.06
same,relative viability,[3]; first compound 0.03162 µM,1.01
same,relative viability,[3]; first compound 0.1 µM,1.08
same,relative viability,[3]; first compound 0.3162 µM,1.15
same,relative viability,[3]; first compound 1 µM,0.752
same,relative viability,[4]; first compound 0.01 µM,1.17
same,relative viability,[4]; first compound 0.03162 µM,1.2
same,relative viability,[4]; first compound 0.1 µM,1.17
same,relative viability,[4]; first compound 0.3162 µM,1.14
same,relative viability,[4]; first compound 1 µM,1.15
same,relative viability,[5]; first compound 0.01 µM,0.717
same,relative viability,[5]; first compound 0.03162 µM,0.703
same,relative viability,[5]; first compound 0.1 µM,0.726
same,relative viability,[5]; first compound 0.3162 µM,0.742
same,relative viability,[5]; first compound 1 µM,0.798
same,relative viability,[6]; first compound 0.01 µM,0.542
same,relative viability,[6]; first compound 0.03162 µM,0.447
same,relative viability,[6]; first compound 0.1 µM,0.469
same,relative viability,[6]; first compound 0.3162 µM,0.511
same,relative viability,[6]; first compound 1 µM,0.61
same,relative viability,[7]; first compound 0.01 µM,0.889
same,relative viability,[7]; first compound 0.03162 µM,0.832
same,relative viability,[7]; first compound 0.1 µM,0.95
same,relative viability,[7]; first compound 0.3162 µM,0.725
same,relative viability,[7]; first compound 1 µM,0.979
same,relative viability,[8]; first compound 0.01 µM,0.664
same,relative viability,[8]; first compound 0.03162 µM,0.645
same,relative viability,[8]; first compound 0.1 µM,0.629
same,relative viability,[8]; first compound 0.3162 µM,0.819
same,relative viability,[8]; first compound 1 µM,0.696
same,relative viability,[9]; first compound 0.01 µM,0.798
same,relative viability,[9]; first compound 0.03162 µM,0.979
same,relative viability,[9]; first compound 0.1 µM,0.737
same,relative viability,[9]; first compound 0.3162 µM,0.87
same,relative viability,[9]; first compound 1 µM,0.764
same,relative viability,[10]; first compound 0.01 µM,1.21
same,relative viability,[10]; first compound 0.03162 µM,0.923
same,relative viability,[10]; first compound 0.1 µM,1.03
same,relative viability,[10]; first compound 0.3162 µM,0.899
same,relative viability,[10]; first compound 1 µM,1.06
same,relative viability,[11]; first compound 0.01 µM,0.553
same,relative viability,[11]; first compound 0.03162 µM,0.685
same,relative viability,[11]; first compound 0.1 µM,0.649
same,relative viability,[11]; first compound 0.3162 µM,0.644
same,relative viability,[11]; first compound 1 µM,0.637
same,relative viability,[12]; first compound 0.01 µM,0.906
same,relative viability,[12]; first compound 0.03162 µM,1.06
same,relative viability,[12]; first compound 0.1 µM,0.919
same,relative viability,[12]; first compound 0.3162 µM,0.973
same,relative viability,[12]; first compound 1 µM,0.961
same,relative viability,[13]; first compound 0.01 µM,0.55
same,relative viability,[13]; first compound 0.03162 µM,0.594
same,relative viability,[13]; first compound 0.1 µM,0.575
same,relative viability,[13]; first compound 0.3162 µM,0.693
same,relative viability,[13]; first compound 1 µM,0.763

# From the supplement of paper PMC10307832
